Source: PMC314469, “Protein Interaction Networks by Proteome Peptide Scanning” (PLoS Biology, 2004)

Tested on: Myo5 SH3 domain
Experiment: SPOT analysis of cellulose-bound peptides (WISE), Myo5 SH3 domain (Dataset S4)
Format: binding, Saccharomyces cerevisiae
Conditions: for The normalized value in BLU units: Myo5 SH3 domain
[1] = SPOT analysis of membrane-synthesized peptides probed with Myo5 SH3 domain, normalized value
[2] = SPOT analysis of cellulose-bound peptides probed with Myo5 SH3 domain, normalized value
[3] = SPOT analysis of membrane-bound peptides, normalized value (see methods)
[4] = SPOT analysis of cellulose-bound 14-mer yeast proteome peptides, normalized value, mean where the peptide was synthesized more than once

With EEKVKRTPPLPPVP the “The normalized value in BLU units (SPOT analysis, Myo5 SH3)” value [1] was 586.7 BLU.

For EELARVTPLTPKEY, the “The normalized value in BLU units (SPOT analysis, Myo5 SH3)” value [1] was 181.5 BLU.

For EEMGMEEPQAPEAF, the “The normalized value in BLU units (SPOT analysis, Myo5 SH3)” value [2] was 127.9 BLU.

In the case of EEQVKCNPNRPIYW, the “The normalized value in BLU units” value [3] is reported as 110.0 BLU.

EEQVKEKPNEPEGK was tested, and the “The normalized value in BLU units” value [4] was 134.2 BLU.

In the case of EETEMLAPKLPEEN, the “The normalized value in BLU units (SPOT analysis, Myo5 SH3)” value [2] is reported as 81.6 BLU.

For EFDEKLPPKKPAGP, the “The normalized value in BLU units” value [4] was 87.3 BLU.

With EFDLKNIPMMPAGE the “The normalized value in BLU units (SPOT analysis, Myo5 SH3)” value [1] was 106.1 BLU.

EFDMLLLPFIPSID was tested, and the “The normalized value in BLU units” value [4] was 249.2 BLU.

In the case of EFIVKTIPVPPRDF, the “The normalized value in BLU units (SPOT analysis, Myo5 SH3)” value [1] is reported as 115.3 BLU.

EFLIKEDPDLPPQG was tested, and the “The normalized value in BLU units” value [3] was 175.4 BLU.

EFLRKHSPKAPATG was tested, and the “The normalized value in BLU units (SPOT analysis, Myo5 SH3)” value [1] was 412.8 BLU.

For EFPGKKCPRLPHRN, the “The normalized value in BLU units (SPOT analysis, Myo5 SH3)” value [1] was 367.5 BLU.

In the case of EFQSKSSPVPPASE, the “The normalized value in BLU units (SPOT analysis, Myo5 SH3)” value [1] is reported as 78.8 BLU.

For EFSPHSTPVTPRRL, the “The normalized value in BLU units” value [4] was 114.0 BLU.

EFTTREGPHQPIGN was tested, and the “The normalized value in BLU units” value [3] was 79.8 BLU.

With EGRCRLFPHCPLGR the “The normalized value in BLU units” value [3] was 141.3 BLU.

EGTTKVDPIIPVPE was tested, and the “The normalized value in BLU units” value [4] was 180.1 BLU.

For EHLQKERPKPPNKG, the “The normalized value in BLU units” value [3] was 363.6 BLU.

For EIAKRLQPGSPVLG, the “The normalized value in BLU units” value [3] was 172.5 BLU.

In the case of EIKDRDQPAVPPSP, the “The normalized value in BLU units (SPOT analysis, Myo5 SH3)” value [1] is reported as 108.1 BLU.

In the case of EIPSKDHPYDPEKD, the “The normalized value in BLU units” value [3] is reported as 51.8 BLU.

EKEAKSEPQQPEDN was tested, and the “The normalized value in BLU units” value [3] was 139.0 BLU.

With EKELKEGPSSPASI the “The normalized value in BLU units” value [3] was 208.1 BLU.

EKESRHYPIKPPSP was tested, and the “The normalized value in BLU units” value [3] was 179.9 BLU.

For EKLIKITPDTPFGF, the “The normalized value in BLU units (SPOT analysis, Myo5 SH3)” value [1] was 205.9 BLU.

EKNARGIPQAPFIE was tested, and the “The normalized value in BLU units” value [3] was 135.6 BLU.

EKVFRGDPEHPAIS was tested, and the “The normalized value in BLU units” value [3] was 90.0 BLU.

With EKYGKDQPESPVPE the “The normalized value in BLU units” value [3] was 143.3 BLU.

For ELAEFTDPSCPVSE, the “The normalized value in BLU units” value [4] was 188.9 BLU.

In the case of ELDIKQGPVRPFIV, the “The normalized value in BLU units (SPOT analysis, Myo5 SH3)” value [1] is reported as 161.2 BLU.

For ELDTKTIPELPFCM, the “The normalized value in BLU units” value [3] was 53.2 BLU.

In the case of ELEDFAFPDTPTIV, the “The normalized value in BLU units” value [4] is reported as 254.9 BLU.

ELFTFDMPTDPSSF was tested, and the “The normalized value in BLU units” value [4] was 44.9 BLU.

In the case of ELLCFLSPGKPSKG, the “The normalized value in BLU units (SPOT analysis, Myo5 SH3)” value [2] is reported as 57.4 BLU.

With ELQIRYKPTPPLKK the “The normalized value in BLU units” value [3] was 171.0 BLU.

ELRDLDIPLVPSPK was tested, and the “The normalized value in BLU units (SPOT analysis, Myo5 SH3)” value [2] was 75.3 BLU.

In the case of ELRKLVQPITPIIK, the “The normalized value in BLU units (SPOT analysis, Myo5 SH3)” value [2] is reported as 170.0 BLU.

In the case of ELRTLFVPLIPSVT, the “The normalized value in BLU units” value [4] is reported as 293.5 BLU.

In the case of ELYYLNDPKYPGTK, the “The normalized value in BLU units” value [4] is reported as 0.0 BLU.

For ENENKKLPPAPTVF, the “The normalized value in BLU units (SPOT analysis, Myo5 SH3)” value [1] was 67.7 BLU.

For ENTPRPNPTQPRKP, the “The normalized value in BLU units” value [4] was 137.3 BLU.

In the case of EPATLPLPGTPTLA, the “The normalized value in BLU units (SPOT analysis, Myo5 SH3)” value [2] is reported as 61.8 BLU.

For EPEPLMSPVPPSSA, the “The normalized value in BLU units” value [4] was 215.2 BLU.

In the case of EPIAHLFPPGPKNP, the “The normalized value in BLU units (SPOT analysis, Myo5 SH3)” value [2] is reported as 356.3 BLU.

With EPPSWKPPDLPIRL the “The normalized value in BLU units (SPOT analysis, Myo5 SH3)” value [2] was 86972.2 BLU.

With ERDGRGVPLGPRNH the “The normalized value in BLU units” value [4] was 121.3 BLU.

In the case of ETGVRYGPEFPLCT, the “The normalized value in BLU units (SPOT analysis, Myo5 SH3)” value [1] is reported as 96.2 BLU.

With ETKKKWQPLPPEPL the “The normalized value in BLU units (SPOT analysis, Myo5 SH3)” value [1] was 255.8 BLU.

With ETSLRVLPIAPKIF the “The normalized value in BLU units” value [4] was 548.0 BLU.

In the case of ETTTRETPLPPIPA, the “The normalized value in BLU units (SPOT analysis, Myo5 SH3)” value [1] is reported as 178.3 BLU.

With EVENKLRPDLPVKN the “The normalized value in BLU units” value [3] was 40.7 BLU.

In the case of EVLRKYIPGEPEFL, the “The normalized value in BLU units (SPOT analysis, Myo5 SH3)” value [1] is reported as 168.7 BLU.

With EWEEKLTPAGPLCP the “The normalized value in BLU units” value [3] was 297.2 BLU.

With EWPGLDPPYIPLDF the “The normalized value in BLU units (SPOT analysis, Myo5 SH3)” value [2] was 62.7 BLU.

With EYFPREYPKDPVSE the “The normalized value in BLU units” value [3] was 272.2 BLU.

For EYSPRPSPWLPSKP, the “The normalized value in BLU units” value [3] was 73.7 BLU.

With FANIKREPVHPEIR the “The normalized value in BLU units” value [4] was 188.2 BLU.

With FARTLKIPNEPSPG the “The normalized value in BLU units” value [4] was 145.7 BLU.

For FASEKGAPFFPNKT, the “The normalized value in BLU units (SPOT analysis, Myo5 SH3)” value [1] was 358.8 BLU.

For FASQLRKPRAPMRN, the “The normalized value in BLU units (SPOT analysis, Myo5 SH3)” value [2] was 459.9 BLU.

In the case of FAYSLGLPGAPKIK, the “The normalized value in BLU units (SPOT analysis, Myo5 SH3)” value [2] is reported as 75.8 BLU.

FEDHHITPCKPGGQ was tested, and the “The normalized value in BLU units” value [4] was 67.9 BLU.

In the case of FEEDKMTPSTPVRS, the “The normalized value in BLU units (SPOT analysis, Myo5 SH3)” value [1] is reported as 248.5 BLU.

FEESMNNPLPPLPP was tested, and the “The normalized value in BLU units” value [4] was 168.9 BLU.

In the case of FEKRYYVPEDPSQD, the “The normalized value in BLU units” value [4] is reported as 120.8 BLU.

FEMVFRHPEQPHMI was tested, and the “The normalized value in BLU units” value [4] was 309.9 BLU.

FENLLMEPNLPFFT was tested, and the “The normalized value in BLU units (SPOT analysis, Myo5 SH3)” value [2] was 202.2 BLU.

With FENRKHQPFTPKGM the “The normalized value in BLU units” value [3] was 211.2 BLU.

For FESFLRPPSTPDLP, the “The normalized value in BLU units” value [4] was 70.2 BLU.

FESTLPIPTYPREG was tested, and the “The normalized value in BLU units (SPOT analysis, Myo5 SH3)” value [2] was 122.0 BLU.
